Experimental data taken from patent US12606541B2, “PPARg modulators and methods of use” (Eisai R&D Management Co., Ltd., priority 2020, dated 2026).

Biological target: T1, His6-TEV-PPARγ-(234-505) (Homo sapiens, UniProt P37231)
T1 construct: The His6-TEV-PPARγ-(234-505) protein for assay was expressed and purified; TEV cleavage site (N); made in house
T1 sequence (P37231 234-505): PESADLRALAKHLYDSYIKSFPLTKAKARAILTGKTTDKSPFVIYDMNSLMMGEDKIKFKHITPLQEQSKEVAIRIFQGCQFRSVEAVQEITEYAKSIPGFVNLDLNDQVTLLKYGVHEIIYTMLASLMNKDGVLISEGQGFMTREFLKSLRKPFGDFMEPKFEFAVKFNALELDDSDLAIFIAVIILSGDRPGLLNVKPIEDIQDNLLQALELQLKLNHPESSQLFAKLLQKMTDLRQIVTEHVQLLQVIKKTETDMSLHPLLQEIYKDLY
Assay: TR-FRET Assay to Measure Co-R Peptide Recruitment to PPARγ
Type: biochemical
Conditions: Co-R peptide recruitment to PPARγ; read-out: TR-FRET AC50
Procedure, shortened: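 Corepressor recruitment is measured by adding terbium-labeled anti-His antibody and FITC SMRT-ID2 peptide, at 5 and 200 nM final, after a 20-minute room-temperature protein–compound incubation. After one further hour, signal is converted to percent response between DMSO and 500 nM T0070907 wells.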

SMILES	AC50 [nM]
CC(C)CCNC(=O)C1CCN(C(=O)c2cc(-c3ccncc3)[nH]n2)CC1 [N-(3-methylbutyl)-1-[5-(pyridin-4-yl)-1H-pyrazole-3-carbonyl]piperidine-4-carboxamide]	> 1000
CC1CCCC(NC(=O)C2CCN(C(=O)c3cc(-c4ccncc4)[nH]n3)CC2)C1 (stereo not shown) [N-(3-methylcyclohexyl)-1-[5-(pyridin-4-yl)-1H-pyrazole-3-carbonyl]piperidine-4-carboxamide]	> 1000
Cc1cnccc1NC(=O)C1CCN(C(=O)c2cc(-c3ccncc3)[nH]n2)CC1 [N-(3-methylpyridin-4-yl)-1-[5-(pyridin-4-yl)-1H-pyrazole-3-carbonyl]piperidine-4-carboxamide]	> 1000
COc1cc(-c2cc(C(=O)N3CCC(C(=O)NC4CCC(F)(F)CC4)CC3)n[nH]2)ccn1 [N-(4,4-difluorocyclohexyl)-1-[5-(2-methoxypyridin-4-yl)-1H-pyrazole-3-carbonyl]piperidine-4-carboxamide]	> 1000
O=C(NC1CCC(F)(F)CC1)C1CCN(C(=O)c2cc(-c3ccncc3)[nH]n2)CC1 [N-(4,4-difluorocyclohexyl)-1-[5-(pyridin-4-yl)-1H-pyrazole-3-carbonyl]piperidine-4-carboxamide]	> 1000
COc1cc(-c2cc(C(=O)N3CCC(C(=O)NC4CCC(C)(C)CC4)CC3)n[nH]2)ccn1 [N-(4,4-dimethylcyclohexyl)-1-[5-(2-methoxypyridin-4-yl)-1H-pyrazole-3-carbonyl]piperidine-4-carboxamide]	> 1000
O=C(Nc1ccc(Cl)cc1)C1CCCN(C(=O)c2cc(-c3ccncc3)[nH]n2)C1 (stereo not shown) [N-(4-chlorophenyl)-1-[5-(pyridin-4-yl)-1H-pyrazole-3-carbonyl]piperidine-3-carboxamide]	> 1000
O=C(Nc1ccc(Cl)cc1)C1CCN(C(=O)c2cc(-c3ccncc3)[nH]n2)CC1 [N-(4-chlorophenyl)-1-[5-(pyridin-4-yl)-1H-pyrazole-3-carbonyl]piperidine-4-carboxamide]	> 1000
COc1ccc(NC(=O)C2CCN(C(=O)c3cc(-c4ccncc4)[nH]n3)CC2)c(C)c1 [N-(4-methoxy-2-methylphenyl)-1-[5-(pyridin-4-yl)-1H-pyrazole-3-carbonyl]piperidine-4-carboxamide]	> 1000
COC1CCC(NC(=O)C2CCN(C(=O)c3cc(-c4ccncc4)[nH]n3)CC2)CC1 (stereo not shown) [N-(4-methoxycyclohexyl)-1-[5-(pyridin-4-yl)-1H-pyrazole-3-carbonyl]piperidine-4-carboxamide]	> 1000
COc1ccc(NC(=O)C2CCN(C(=O)c3cc(-c4ccncc4)[nH]n3)CC2)cc1 [N-(4-methoxyphenyl)-1-[5-(pyridin-4-yl)-1H-pyrazole-3-carbonyl]piperidine-4-carboxamide]	> 1000
COc1ccnc(NC(=O)C2CCN(C(=O)c3cc(-c4ccncc4)[nH]n3)CC2)c1 [N-(4-methoxypyridin-2-yl)-1-[5-(pyridin-4-yl)-1H-pyrazole-3-carbonyl]piperidine-4-carboxamide]	> 1000
CC1CCC(NC(=O)C2CCN(C(=O)c3cc(-c4ccncc4)[nH]n3)CC2)CC1 (stereo not shown) [N-(4-methylcyclohexyl)-1-[5-(pyridin-4-yl)-1H-pyrazole-3-carbonyl]piperidine-4-carboxamide]	> 1000
CC1CCC(NC(=O)C2CCN(C(=O)c3cc(-c4ccncn4)[nH]n3)CC2)CC1 (stereo not shown) [N-(4-methylcyclohexyl)-1-[5-(pyrimidin-4-yl)-1H-pyrazole-3-carbonyl]piperidine-4-carboxamide]	> 1000
CC1CCC(NC(=O)C2CCN(C(=O)c3cc(-c4ccnc(N5CCCC5)c4)[nH]n3)CC2)CC1 (stereo not shown) [N-(4-methylcyclohexyl)-1-{5-[2-(pyrrolidin-1-yl)pyridin-4-yl]-1H-pyrazole-3-carbonyl}piperidine-4-carboxamide]	> 1000
CC1CCC(NC(=O)C2CCN(C(=O)c3cc(-c4ccnc(C(F)(F)F)c4)[nH]n3)CC2)CC1 (stereo not shown) [N-(4-methylcyclohexyl)-1-{5-[2-(trifluoromethyl)pyridin-4-yl]-1H-pyrazole-3-carbonyl}piperidine-4-carboxamide]	> 1000
CC1(NC(=O)C2CCN(C(=O)c3cc(-c4ccncc4)[nH]n3)CC2)CCOCC1 [N-(4-methyloxan-4-yl)-1-[5-(pyridin-4-yl)-1H-pyrazole-3-carbonyl]piperidine-4-carboxamide]	> 1000
Cc1ccc(NC(=O)C2CCN(C(=O)c3cc(-c4ccncc4)[nH]n3)CC2)cc1 [N-(4-methylphenyl)-1-[5-(pyridin-4-yl)-1H-pyrazole-3-carbonyl]piperidine-4-carboxamide]	> 1000
O=C(NC1CCC(c2ccccc2)CC1)C1CCN(C(=O)c2cc(-c3cccnc3)[nH]n2)CC1 (stereo not shown) [N-(4-phenylcyclohexyl)-1-[5-(pyridin-3-yl)-1H-pyrazole-3-carbonyl]piperidine-4-carboxamide]	> 1000

SMILES	AC50 [nM]
O=C(NC1CCC(c2ccccc2)CC1)C1CCN(C(=O)c2cc(-c3ccncc3)[nH]n2)CC1 (stereo not shown) [N-(4-phenylcyclohexyl)-1-[5-(pyridin-4-yl)-1H-pyrazole-3-carbonyl]piperidine-4-carboxamide]	> 1000
O=C(Nc1ccc(F)cn1)C1CCN(C(=O)c2cc(-c3ccncc3)[nH]n2)CC1 [N-(5-fluoropyridin-2-yl)-1-[5-(pyridin-4-yl)-1H-pyrazole-3-carbonyl]piperidine-4-carboxamide]	> 1000
Cc1ccc(NC(=O)C2CCN(C(=O)c3cc(-c4ccncc4)[nH]n3)CC2)nn1 [N-(6-methylpyridazin-3-yl)-1-[5-(pyridin-4-yl)-1H-pyrazole-3-carbonyl]piperidine-4-carboxamide]	> 1000
O=C(NCC1CC1)C1CCN(C(=O)c2cc(-c3ccncc3)[nH]n2)CC1 [N-(cyclopropylmethyl)-1-[5-(pyridin-4-yl)-1H-pyrazole-3-carbonyl]piperidine-4-carboxamide]	> 1000
O=C(NC1CCOCC1)C1CCN(C(=O)c2cc(-c3ccncc3)[nH]n2)CC1 [N-(oxan-4-yl)-1-[5-(pyridin-4-yl)-1H-pyrazole-3-carbonyl]piperidine-4-carboxamide]	> 1000
CCC(CC)NC(=O)C1CCN(C(=O)c2cc(-c3ccncc3)[nH]n2)CC1 [N-(pentan-3-yl)-1-[5-(pyridin-4-yl)-1H-pyrazole-3-carbonyl]piperidine-4-carboxamide]	> 1000
O=C(Nc1cccnn1)C1CCN(C(=O)c2cc(-c3ccncc3)[nH]n2)CC1 [N-(pyridazin-3-yl)-1-[5-(pyridin-4-yl)-1H-pyrazole-3-carbonyl]piperidine-4-carboxamide]	> 1000
O=C(NCc1cnc2c(c1)CCC2)C1CCN(C(=O)c2cc(-c3ccncc3)[nH]n2)CC1 [N-({5H,6H,7H-cyclopenta[b]pyridin-3-yl}methyl)-1-[5-(pyridin-4-yl)-1H-pyrazole-3-carbonyl]piperidine-4-carboxamide]	> 1000
O=C(NC1(c2cccc(Cl)c2)CC1)C1CCN(C(=O)c2cc(-c3ccncc3)[nH]n2)CC1 [N-[1-(3-chlorophenyl)cyclopropyl]-1-[5-(pyridin-4-yl)-1H-pyrazole-3-carbonyl]piperidine-4-carboxamide]	> 1000
CN(C)CCNC(=O)C1CCN(C(=O)c2cc(-c3ccncc3)[nH]n2)CC1 [N-[2-(dimethylamino)ethyl]-1-[5-(pyridin-4-yl)-1H-pyrazole-3-carbonyl]piperidine-4-carboxamide]	> 1000
CN(C)CCCNC(=O)C1CCN(C(=O)c2cc(-c3ccncc3)[nH]n2)CC1 [N-[3-(dimethylamino)propyl]-1-[5-(pyridin-4-yl)-1H-pyrazole-3-carbonyl]piperidine-4-carboxamide]	> 1000
O=C(NCCCN1CCOCC1)C1CCN(C(=O)c2cc(-c3ccncc3)[nH]n2)CC1 [N-[3-(morpholin-4-yl)propyl]-1-[5-(pyridin-4-yl)-1H-pyrazole-3-carbonyl]piperidine-4-carboxamide]	> 1000
O=C(NC1CCC(CCO)CC1)C1CCN(C(=O)c2cc(-c3ccncc3)[nH]n2)CC1 (stereo not shown) [N-[4-(2-hydroxyethyl)cyclohexyl]-1-[5-(pyridin-4-yl)-1H-pyrazole-3-carbonyl]piperidine-4-carboxamide]	> 1000
Cn1cc(CNC(=O)C2CCN(C(=O)c3cc(-c4ccncc4)[nH]n3)CC2)cn1 [N-[(1-methyl-1H-pyrazol-4-yl)methyl]-1-[5-(pyridin-4-yl)-1H-pyrazole-3-carbonyl]piperidine-4-carboxamide]	> 1000
COc1cc(-c2cc(C(=O)N3CCC(C(=O)NCc4ccc5[nH]cnc5c4)CC3)n[nH]2)c(Cl)cn1 [N-[(1H-1,3-benzodiazol-5-yl)methyl]-1-[5-(5-chloro-2-methoxypyridin-4-yl)-1H-pyrazole-3-carbonyl]piperidine-4-carboxamide]	> 1000
Cc1ccc([C@@H](C)NC(=O)C2CCN(C(=O)c3cc(-c4ccncc4)[nH]n3)CC2)cc1 [N-[(1R)-1-(4-methylphenyl)ethyl]-1-[5-(pyridin-4-yl)-1H-pyrazole-3-carbonyl]piperidine-4-carboxamide]	> 1000
C[C@@H](NC(=O)C1CCN(C(=O)c2cc(-c3ccncc3)[nH]n2)CC1)c1ccc(C(C)(C)C)cc1 [N-[(1R)-1-(4-tert-butylphenyl)ethyl]-1-[5-(pyridin-4-yl)-1H-pyrazole-3-carbonyl]piperidine-4-carboxamide]	> 1000
C[C@@H](NC(=O)C1CCN(C(=O)c2cc(-c3ccncc3)[nH]n2)CC1)c1ccccc1 [N-[(1R)-1-phenylethyl]-1-[5-(pyridin-4-yl)-1H-pyrazole-3-carbonyl]piperidine-4-carboxamide]	> 1000
